Data on five molecules can be found in publication PMC9882606, “Rationally designed inhibitors of the Musashi protein-RNA interaction by hotspot mimicry” (Research Square, 2023).

The target in data set [1] is T1, MSI1 RRM1 (Homo sapiens, UniProt O43347).
T1 sequence (O43347 20-110 limits assumed): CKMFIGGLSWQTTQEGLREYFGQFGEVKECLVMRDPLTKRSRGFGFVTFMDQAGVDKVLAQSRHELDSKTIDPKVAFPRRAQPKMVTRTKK
As to the kind of experiment: Fluorescence polarization (FP) competition assay with fluorescein-labeled RNA. To be noted: for inhibition in FP competition assay: MSI1 RRM1, result in words. The data set is classed as binding. The text has this: Figure 1: The hotspot mimicry approach. […] (A) The structure of the MSI1 / RNA complex. The RNA (sticks) wraps around the protein (spheres). Two adjacent bases, A106 and G107 (magenta), are buried in a shallow pocket on the protein surface. (B) An interaction map is generated from the RNA in the complex, by collecting deeply buried bases (magenta) and atoms involved in intermolecular hydrogen bonds (acceptors shown in yellow, donors in green). […] Positive values indicate diminished binding when a given base is replaced with an abasic site, showing that A106 and G107 contribute more than the other nearby bases to the binding affinity of this interaction. (E) The hotspot pharmacophore serves as a template for ligand-based screening, searching for compounds that would mimic the three-dimensional features of the pharmacophore. The screen led to the identification of compound R12, which mimics the geometry of the rings and provides three of the four desired hydrogen bonding groups. (F) R12 competes with fluorescein-labeled RNA for MSI1 binding, as observed through a fluorescence polarization assay. […] (G) Superposition of the hotspot pharmacophore back onto the protein structure illustrates the interactions that should be captured by an ideal ligand: stacking against three aromatic sidechains, and four intermolecular hydrogen bonds.
We applied our “hotspot mimicry” approach to the structure of Musashi-1 RRM1 bound to cognate RNA [54], and found a single hotspot pharmacophore derived from an adjacent pair of buried bases, Adenine106 and Guanine107 (Figure 1a). […] This pharmacophore captures both the aromatic stacking and the hydrogen bonding of the RNA hotspot through its inclusion of ring moieties and donor/acceptor positions, respectively (Figure 1c). To test whether these two particular bases indeed serve as a hotspot of the MSI1 RRM1 / RNA interaction, we used a fluorescence polarization (FP) competition assay (see Supporting Methods) to measure the binding affinity of RNA variants that maintained the backbone but lacked individual bases. […] In contrast, introduction of an abasic site at other nearby positions affected binding much less. Confirmation that A106 and G107 serve as hotspot bases of this interaction thus provided experimental evidence supporting the pharmacophore selection from our computational approach.
For orientation: Fluorescence polarisation rises when a labelled molecule tumbles more slowly, as on binding a larger partner.

In data set [2] the test system is MSI2. As to the kind of experiment: Immunoblot of cellular MSI2 protein levels in PC9 cells. The note with it: PC9, 20 μM compound for 1, 3, 6, 24, or 48 hours. It is filed as cell-based, human. The text has this: To explore the effect of these MSI2 inhibitors in a cancer-relevant cellular context, we selected two MSI2-dependent cancer cell lines: non-small cell lung cancer cell line PC9 and leukemia cell line K562 [73, 98–101]. Upon treatment of PC9 cells with Ro, R12–8–44–3, or negative control R12-neg, we found at multiple time points that cellular MSI2 protein levels were unchanged (Figure 6a). To confirm target engagement, we therefore adapted the cellular thermal shift assay (CETSA). To determine experimental conditions, we first harvested cells and incubated at increasing temperatures; we then removed aggregated protein by centrifugation and used Western blotting to probe the amount of MSI2 remaining in the soluble fraction (Figure 6b, Figure S9). Having established 49 °C as the midpoint of the transition under these (non-equilibrium) conditions, we then treated cells with our candidate MSI2 inhibitor for 3 h, and heated to 49 °C.
Figure 6: Direct cellular engagement of MSI2 interaction by R12–44–3. (A) Immunoblot from PC9 cells treated with Ro (positive control), R12-neg (negative control), or R12–8–44–3. Cells were treated with 20 μM compound for 1, 3, 6, 24, or 48 hours. MSI2 protein abundance was then quantified and normalized to untreated sample. One representative image is shown; quantification is presented as the average ± S.E.M. from 3 independent replicates. (B) Thermal-induced aggregation of cellular MSI2 in the PC9 cell line. Cells were briefly incubated at temperatures between 40 °C to 67 °C, then centrifuged and the amount of MSI2 remaining in the soluble fraction was quantified by Western blotting. […] One representative image is shown; quantification is presented as the average ± S.E.M. from 3 independent replicates, normalized first to beta-actin and then to DMSO control. […] One representative image is shown; quantification is presented as the average ± S.E.M. from 3 independent replicates, normalized first to beta-actin and then to DMSO control. […]

Data set [3] addresses MSI2 (Homo sapiens, UniProt Q96DH6). As to the kind of experiment: MS2-TRAP aptamer pull-down reporter assay in HEK293 cells. The data set is classed as cell-based. On the set-up: HEK293 cells (with a high baseline MSI2 expression); endogenous in cells; host or cells: HEK293. To be noted: HEK293, 24 h treatment; for total amount of MSI2 in cells: input prior to IP; for amount of Luc mRNA in cells (qPCR): prior to IP. The text has this: Figure 5: Characterization of R12–8–44–3 in a reporter cell line. […] As a positive control, Ro 08–2750 (aka “Ro”) is also included in these studies. (B) Schematic of reporter assay. HEK293 cells are transfected with a plasmid encoding an arbitrary gene (Luc) with UAG repeats (to recruit MSI2) and MS2 repeats (for pulldown) appended to its 3’ UTR. The same vector also includes FLAG-labeled MS2-BP. Upon anti-FLAG immunoprecipitation (IP), the FLAG-labeled MS2-BP allows purification of the Luc mRNA along with any associated factors. (C) Prior to IP, cells express Luc mRNA to a similar extent irrespective of whether they were treated with DMSO, R12-neg, R12–8–44–3, or Ro. (D) Prior to IP (“input”), MSI2 is detected in all samples to a similar extent (as is KU-86 loading control). After pulldown of Luc mRNA, MSI2 is found associated with the mRNA in cells treated with DMSO or R12-neg, but not in cells that had been treated with R12–8–44–3 or Ro. Representative image is shown; quantification is plotted as the average of 2 independent experiments ± S.E.M. Statistical analysis was performed using unpaired two tailed t-test, with * indicating p<0.05. Uncropped Western blots from this experiment are provided as Figure S8.
To determine whether inhibition of MSI1/MSI2 by R12–8–44–3 would apply in a cellular context, we adapted an aptamer pull-down reporter assay that we previously used to validate candidate Musashi target genes. Briefly, our approach is a variation of the MS2-TRAP (MS2-tagged RNA affinity purification) method, which uses bacteriophage protein MS2-BP to extract from cells any factors that associate with RNAs containing a specific stem-loop structure (MS2) from the phage genome. Here, we designed an mRNA construct that would include a series of MS2 hairpins and also a MSI2 recognition sequence. We transfected this construct into cells that also express FLAG-tagged MS2-BP (a protein unrelated to MSI2). By affinity purification using the FLAG tag, proteins bound to the designed mRNA can be extracted from cells.
To test for inhibition of MSI2 in cells, we transfected HEK293 cells (with a high baseline MSI2 expression), with the pMS2-LUC-3’UTR from our previous studies. This vector appends onto the 3’UTR of an arbitrary gene (in this case luciferase) two key elements: UAG-motifs comprising a MSI2 recognition sequence, and a series of five MS2 hairpins. The same vector also encodes the FLAG-MS2-BP fusion needed for affinity purification (Figure 5b). Cells were then treated with each compound of interest for 24 h, and then the cells were subsequently harvested and used for anti-FLAG immunoprecipitation. […] Using qPCR we evaluated the amount of Luc mRNA in cells treated with R12–8–44–3, R12-neg, or Ro, and found this to be unchanged (Figure 5c).
A general note: A reporter such as luciferase makes a cellular process visible.

Data set [4] is described as follows: Solubility as noted during FP testing. The data set is classed as physicochemical. To be noted: result in words. The text has this: We then used this pharmacophore as a template for virtual screening. The 12 top-scoring hits identified from the resulting screen could each be classified into one of three diverse chemotypes (Figure S1). While none of these scaffolds bear any obvious resemblance in chemical structure to a nucleobase pair, the overlap in three-dimensional shape and hydrogen bonding potential between the hotspot pharmacophore and the modeled conformation of each compound is immediately evident. Despite this strong similarity, none of the 12 hit compounds recapitulated all four of the polar groups included in the hotspot pharmacophore, and only three hit compounds matched to three of the polar groups: R12 (Figure 1e), its close analog R4, and R7 (Figure S2).
(§1) Out of concern that R12–7’s activity may be associated with compound aggregation, we elected to continue with optimization of R12–8 (Figure 2b).

For data set [5], the target named is T1, MSI1 RRM1. Briefly: Differential Scanning Fluorimetry (DSF). It is filed as binding. To be noted: increasing compound dose.
Text: as §1
To further characterize R12–8–44–3, we applied differential scanning fluorimetry (DSF) as an orthogonal secondary assay. […] While this could be a sign of apparent inhibition occurring through aggregation, there are also legitimate inhibitors that reduce their target protein’s melting temperature. An alternate explanation could simply be that MSI1’s folding landscape is not simply two-state, and that a partially-folded intermediate stabilized by R12–8–44–3 affects the unfolding transition.

The test system of data set [6] is PC9 cells. Briefly: CellTiter-Blue cell viability, PC9. The note with it: PC9, 3 days, dose-response. It is filed as cell-based, human. As to the method: (§2) Figure 7: Cellular characterization of MSI2 inhibition by R12–8–44–3. (A) Quantification of mRNA immunoprecipitation (RIP) results. Cells were treated with 10 μM of the indicated compounds for 8 hours. After immunoprecipitation with anti-MSI2, mRNA targets were quantified. The amount of each target mRNA in the pulldown was calculated relative to the input, and results from all targets were normalized to PTP4A1. Treating cells with R12–8–44–3 disrupted the interaction with all four cognate mRNAs (PTP4A, SMAD3, EGFR, and MSI2). Data are presented as the average ± S.E.M. from at least 3 independent replicates. […] Cells were treated with indicated compounds at two concentrations (5 μM and 20 μM) for 48 hours, then protein levels of relevant MSI2 targets were determined (EGFR, SMAD3, and MSI2). One representative image is shown; quantification is presented as the average ± S.E.M. from at least 3 independent replicates, normalized first to beta-actin and then to DMSO-treated cells. (C) Cell viability dose-response quantified by CellTiter-Blue after 3 days (left) and cell proliferation with 10μM of compounds quantified by clonogenic assay after 7 days (right). […] (D) Cell viability quantified by clonogenic assay of PC9 cell line after 7-day treatment with 2 nM osimertinib (osi alone), osimertinib with 10 μM R12–8–44–3, or osimertinib with 10 μM R12-neg. […]

Data set [7] has as its system PC9 cells. Briefly: Clonogenic assay, PC9. The data set is classed as cell-based, human. The note with it: PC9, 10 μM, 7 days. As to the method:
as §2

The next data set concerns MSI1/MSI2. The arrangement: method as in PMID 31217428, PMID 36167829. The note with it: in vitro; cited from earlier work.
A further data set concerns leukemia/lymphoma models. On the set-up: method as in PMID 31217428, PMID 36167829. The note with it: in vivo leukemia/lymphoma models; cited from earlier work.

MSI2 (Homo sapiens, UniProt Q96DH6), sequence (Q96DH6 whole entry): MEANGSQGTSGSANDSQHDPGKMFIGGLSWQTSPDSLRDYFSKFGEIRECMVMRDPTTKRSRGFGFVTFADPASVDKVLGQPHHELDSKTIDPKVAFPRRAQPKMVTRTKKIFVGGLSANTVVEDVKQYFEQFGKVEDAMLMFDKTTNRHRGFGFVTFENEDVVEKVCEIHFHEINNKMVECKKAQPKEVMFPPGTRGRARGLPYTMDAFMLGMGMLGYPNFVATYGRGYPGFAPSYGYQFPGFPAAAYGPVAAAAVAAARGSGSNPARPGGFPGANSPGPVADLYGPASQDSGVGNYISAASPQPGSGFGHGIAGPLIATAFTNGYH

`Cc1sc2nc(COC(=O)c3cccc(Cl)c3Cl)nc(N)c2c1C` [R12-neg]: the “inhibition in FP competition assay” value at MSI1 RRM1 [1] is “inactive”. For the same molecule, in the data set with MSI2 [2], the “cellular MSI2 protein levels” value is reported as “unchanged”. Further, on MSI2 [3], the “MSI2 purified with reporter mRNA (anti-FLAG pulldown)” value is on record as “does not disrupt MSI2 pulldown”, the “total amount of MSI2 in cells” value is on record as “unaffected” and the “amount of Luc mRNA in cells (qPCR)” value is recorded as “unchanged”.
Take `Nc1nc(COC(=O)c2cncc(Br)c2)nc2ccccc12` [R12]: the “inhibition in FP competition assay” value on MSI1 RRM1 [1] is “showed inhibition”. Besides, the solubility entry in [4] is “low solubility”.
With `COc1ccc(C(=O)OCc2nc(N)c3ccccc3n2)c(N)c1` [R12–8], the “inhibition in FP competition assay” value at MSI1 RRM1 [1] was “superior inhibition and solubility than R12”. Further, the “change of the protein's melting temperature” value on MSI1 RRM1 [5] is recorded as “monotonically increasing stabilization with increasing dose”. In data set [4], the solubility entry is “superior inhibition and solubility than R12”.
As to `COc1ccc(C(=O)OCc2nc(N)c3c(C)c(C)sc3n2)c(N)c1` [R12–8–44], the “improvement in potency over parent compound” value at MSI1 RRM1 [1] (FP assay, MSI1 RRM1) is on record as “more than ten-fold improvement in potency”. Besides, on MSI1 RRM1 [5], the “change of the protein's melting temperature” value is reported as “monotonically-increasing melting temperature with increasing ligand concentration”.
With `Cc1cc2nc3c(=O)[nH]c(=O)nc-3n(C)c2cc1C=O` [Ro 08–2750, reference compound], the “cellular MSI2 protein levels” value with MSI2 [2] is “unchanged”. Further, in the data set on PC9 cells [6], the “cell viability (CellTiter-Blue)” value was “dramatically diminishes cell viability”. The “cell proliferation (clonogenic assay)” value with PC9 cells [7] is on record as “dramatically diminishes cell viability”. The “inhibition of RNA-binding activity of MSI1/MSI2” value with MSI1/MSI2 is reported as “inhibit the RNA-binding activity of MSI1/MSI2 in vitro”. Also, in the data set with leukemia/lymphoma models, the disease burden result is recorded as “reduce disease burden”. Further, at MSI2 [3], the “MSI2 purified with reporter mRNA (anti-FLAG pulldown)” value is recorded as “much less MSI2 is purified”, the “total amount of MSI2 in cells” value is “unaffected” and the “amount of Luc mRNA in cells (qPCR)” value is recorded as “unchanged”.
